Source: patent US20110230472A1, “RING-FUSED AZOLE DERIVATIVE HAVING PI3K-INHIBITING ACTIVITY” (Shionogi & Co., Ltd., priority 2008, published 2011)

Assays:
[1] = biological target: T1, PI-3 kinase γ (Homo sapiens, UniProt P48736); assay: PI3Kγ inhibitory activity, PI3-kinase HTRF assay (inhibition ratio); type: biochemical; conditions: 0.5 h, PI3Kγ; for inhibition at 50 µM: compound at 50 μM
Method in brief: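 Single-concentration inhibition ratio (50 or 10 μmol/L compound) versus no-compound (100%) and no-enzyme (0%) wells. Reaction: PI-3 kinase γ, PIP2, ATP, MgCl2/DTT, 30 min at RT after 10 min preincubation. Read-out: HTRF 665/620 nm after 18 h detection.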

[2] = tested on: Salmonella typhimurium TA98 line, TA100 line; assay: FAT test (mutagenicity); set-up: key: When the mutagenicity is negative, the compound is shown as (−); When positive, the compound is shown as (+); conditions: TA98 and TA100 lines; non-metabolism-activation and metabolism-activation conditions
Method: 20 μL of Salmonella enterica subsp. typhimurium (Salmonella typhimurium TA98 line, TA100 line) cryopreserved was inoculated to 10 mL of liquid nutrient medium (2.5% Oxoid nutrient broth No. 2) and then precultured at 37° C. for 10 hours with shaking. Regarding TA98 line, after 9 mL of a bacterial suspension was centrifuged (2000×g, 10 minutes) to remove the culture solution, the bacteria was suspended in 9 mL of Micro F buffer solution (K2HPO4: 3.5 g/L, KH2PO4: 1 g/L, (NH4)2SO4: 1 g/L, tri-sodium citric acid dihydrate: 0.25 g/L, MgSO4.7H2O: 0.1 g/L), and then added to 110 mL of Exposure media (Micro F buffer solution containing biotin: 8 μg/mL, histidine: 0.2 μg/mL, glucose: 8 mg/mL). Regarding TA 100 line, 120 mL of Exposure media was added to 3.16 mL of the bacterial suspension to prepare a test bacterial suspension. 12 μL of a solution of a test substance in DMSO (diluted eight times in a common ratio of 2 from the maximum dose of 50 mg/mL); 12 μL of DMSO as a negative control; 50 μg/mL 4-nitroquinoline-1-oxide solution in DMSO for TA98 line or 0.25 μg/mL 2-(2-furyl)-3-(5-nitro-2-furyl)acrylamide solution in DMSO as a positive control for TA 100 line in the case of a non-metabolism-activation condition; 12 μL of 40 μg/mL 2-aminoanthracene solution in DMSO for TA98 line or 20 μg/mL of 2-aminoanthracene solution in DMSO for TA100 line in the case of a metabolism-activation condition; were each mixed with 588 μL of the test bacterial suspension (in the case of a metabolism activation condition, a mixed solution of 498 μL of the test bacterial suspension and 90 μL S9 mix) and then cultured at 37° C. at 90 minutes with shaking. 460 μL of the bacterial suspension to which a test substance was exposed was mixed with 230 μL of Indicator media (a Micro F buffer solution containing 8 μg/mL biotin, 0.2 μg/mL histidine, 8 mg/mL glucose, and 37.5 μg/mL bromocresol purple). 50 μL thereof was dispensed to microplate 48 wells/dose and then statically cultured at 37° C. for 3 days. In a well containing bacteria which obtained proliferation potency by mutation of the amino acid (histidine) synthetase gene, the change of pH caused the color change from purple to yellow. Thus, in 48 wells per dose, the number of the bacteria-proliferation wells in which the color changed to yellow was counted, compared with a group of negative controls, and then evaluated. When the mutagenicity is negative, the compound is shown as (−). When positive, the compound is shown as (+).

[3] = biological target: T2, human ether-a-go-go related gene (hERG) channel (Homo sapiens, UniProt Q12809); assay: hERG test, whole-cell patch-clamp; type: cell-based; conditions: HEK293 cell expressing hERG; applied for 10 minutes; concentration not given
T2 construct: expressed in transfected cells; host or cells: HEK293
Text: For the purpose of risk evaluation of QT interval extension of electrocardiogram, the activity on delayed rectification K^+ current (IKr), which plays an important role in a cardiac ventricle repolarization process, was examined using the HEK293 cell that was made to express human ether-a-go-go related gene (hERG) channel.
Using an automatic patch-clamp system (PatchXpress 7000A, Axon Instruments Inc.), by a whole-cell patch-clamp method, after the cell was maintained at a membrane potential of −80 mV, IKr induced upon applying depolarizing stimulation of +50 mV for 2 seconds and further applying repolarizing stimulation of −50 mV for 2 seconds was recorded. After generated electric current became stable, a test substance dissolved at an intended concentration in extracellular fluid (137 mmol/L NaCl, 4 mmol/L KCl, 1.8 mmol/L CaCl2.2H2O, 1 mmol/L MgCl2.6H2O, 10 mmol/L glucose, 10 mmol/L HEPES (4-(2-hydroxyethyl)-1-piperazineethanesulfonic acid), pH=7.4) was applied to the cell for 10 minutes under room temperature condition. From the obtained IKr, the absolute value of the maximum tail current was measured using analysis software (DataXpress ver. 1, Molecular Devices Corporation) and the value of the electric current in a maintained membrane potential as baseline. Moreover, an inhibition ratio for the maximum tail current prior to the application of the test substance was calculated and then compared with a group of media-application (0.1% dimethylsulfoxide solution) to evaluate influence of the test substance on IKr.

[4] = Solubility test; type: physicochemical; conditions: kinetic from dmso stock; artificial intestinal juice pH 6.8, 1% DMSO, 25° C. for 16 hours
Method in brief: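 Kinetic solubility with 1% DMSO: compound from 10 mmol/L DMSO stock spiked into pH 6.8 phosphate artificial intestinal juice, held 16 h at 25 °C, then suction-filtered. Filtrate diluted twofold in methanol/water (1/1) and quantified by HPLC or LC/MS/MS via absolute calibration.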

[5] = biological target: T1, PI-3 kinase γ; assay: PI3Kγ inhibitory activity (Ki value), HTRF; type: biochemical; conditions: Ki=IC50/(1+10 μM ATP/Km)
Method: The PI3Kγ inhibitory activity (Ki value) of a compound was evaluated according to the following procedure:
5 μL of a compound solution containing 10% DMSO and 200 μmol/L of a compound was changed to 5 μL of a compound solution containing 10% DMSO and either 200, 64, 20, 6.4, 2, 0.64, or 0.20 μmol/L of the compound (optionally, this is diluted to a lower concentration). Using a method similar to the method for measuring PI3Kγ inhibitory activity, inhibition ratios were measured in the presence of the compound at 50, 16, 5, 1.6, 0.5, 0.16, and 0.05 μmol/L (optionally, a lower concentration). Then an IC50 value was calculated by a logistic approximation method or the linear regression method using two concentrations that across 50% inhibition. Separately, the ATP concentration in the reaction solution (40 μmol/L ATP, 10 mmol/L MgCl2, 5 mmol/L DTT) at the time of the start of a reaction in the absence of the compound was changed to 80, 40, 20, 10, 5, 2.5, 1.25, or 0.625 μmol/L. Then, HTRF ratios were measured by a similar method. The value obtained by subtracting the HTRF ratio at each ATP concentration from the HTRF ratio in the absence of PI-3 kinase γ was defined as the value obtained by multiplying reaction rate (v) at each ATP concentration with a constant. The Michaelis-Menten constant Km was then calculated by the Lineweaver-Burk plot method. The Ki value of a compound was calculated by the following formula.
Ki=IC50 value/(1+10 μM (test ATP concentration)/Km (μM))

[6] = Metabolic stability test; type: in vitro ADME; conditions: human liver microsome 0.5 mg protein/mL, 1 mmol/L NADPH, 37° C.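 Also: 100% equals the compound amount at 0 min reaction.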
Method: After a subject compound was reacted for a certain time using a pooled human liver microsome commercially available, a reacted sample and an unreacted sample are compared to calculate a survival ratio, and then the degree of metabolism in the liver was evaluated.
0.2 mL of a buffer solution (50 mmol/L of Tris-HCl in pH 7.4, 150 mmol/L of potassium chloride, and 10 mmol/L of magnesium chloride) containing a human liver microsome of 0.5 mg protein/mL was reacted in the presence of 1 mmol/L NADPH at 37° C. for 0 or 30 minutes (oxidative reaction). After reacting, 50 μL of the reaction solution was added to 100 μL of a solution of methanol/acetonitrile (1/1 (v/v)), mixed, and then centrifuged at 3000 rpm for 15 minutes. The test compound in the supernatant was quantitated with LC/MS/MS. The amount of the compound at a reaction time of 0 minute was defined as 100% and, based on that, the percentage of the test compound remained after reacting for 30 minutes was calculated.

[7] = biological target: T3, CYP2C19 (Homo sapiens, UniProt P33261); assay: CYP inhibition test, pooled human liver microsome, CYP2C19; type: in vitro ADME; conditions: 4′-hydroxylation of mephenyloin
T3 construct: enzyme: pooled human liver microsome 0.2 mg protein/mL; from tissue; host or cells: pooled human liver microsome
Text: (§1) O-de-ethylation of 7-ethoxyresorufin (CYP1A2), methyl-hydroxylation of tolbutamide (CYP2C9), 4′-hydroxylation of mephenyloin (CYP2C19), O-demethylation of dextromethorphan (CYP2D6), and hydroxylation of terfenadine (CYP3A4), which are typical substrate for metabolic reactions of human main CYP5 molecular species (CYP1A2, 2C9, 2C19, 2D6, and 3A4), were adopted as indexes.
(§2) The reaction conditions are as follows: substrate: 0.5 μmol/L of ethoxyresorufin (CYP1A2), 100 μmol/L of tolbutamide (CYP2C9), […] of S-mephenyloin (CYP2C19), 5 μmol/L of dextromethorphan (CYP2D6), and 1 μmol/L of terfenadine (CYP3A4); reaction time; 15 minutes; reaction temperature: 37° C.; enzyme: pooled human liver microsome 0.2 mg protein/mL; test drug concentration: 1, 5, 10, and 20 μmol/L (4 points).
(§3) In a 96-well plate, as a reaction solution, five kinds of substrates, a human liver microsome, and a test drug were added to 50 mmol/L Hepes buffer solution in the aforementioned ratio. A coenzyme NADPH was added to start a metabolic reaction, which is an index. After reacting at 37° C. for 15 minutes, a solution of methanol/acetonitrile (1/1 (v/v)) was added to quench the reaction. After centrifugation at 3000 rpm for 15 minutes, resorufin (CYP1A2 metabolite) in the supernatant was quantitated with a fluorescence multilabel counter, and hydroxylated tolbutamide (CYP2C9 metabolite), 4′-hydroxylated mephenyloin (CYP2C19 metabolite), […], terfenadine in alcohol form (CYP3A4 metabolite) were quantitated with LC/MS/MS.
(§4) The case wherein only DMSO (a solvent which dissolved a drug) was added to a reaction system was defined as a control (100%). When a test drug solution was added, the remaining activity (%) at each concentration was calculated, and then IC50 was calculated with a concentration and an inhibition ratio by an inverse estimation using a logistic model.

[8] = biological target: T4, CYP2D6 (Homo sapiens, UniProt P10635); assay: CYP inhibition test, pooled human liver microsome, CYP2D6; type: in vitro ADME; conditions: O-demethylation of dextromethorphan
T4 construct: enzyme: pooled human liver microsome 0.2 mg protein/mL; from tissue; host or cells: pooled human liver microsome
Text: as §1, §2, §3, §4

[9] = biological target: T5, CYP2C9 (Homo sapiens, UniProt P11712); assay: CYP inhibition test, pooled human liver microsome, CYP2C9; type: in vitro ADME; conditions: methyl-hydroxylation of tolbutamide
T5 construct: enzyme: pooled human liver microsome 0.2 mg protein/mL; from tissue; host or cells: pooled human liver microsome
Text: as §1, §2, §3, §4

[10] = biological target: T6, CYP1A2 (Homo sapiens, UniProt P05177); assay: CYP inhibition test, pooled human liver microsome, CYP1A2; type: in vitro ADME; conditions: O-de-ethylation of 7-ethoxyresorufin
T6 construct: enzyme: pooled human liver microsome 0.2 mg protein/mL; from tissue; host or cells: pooled human liver microsome
T6 sequence (P05177 1-516): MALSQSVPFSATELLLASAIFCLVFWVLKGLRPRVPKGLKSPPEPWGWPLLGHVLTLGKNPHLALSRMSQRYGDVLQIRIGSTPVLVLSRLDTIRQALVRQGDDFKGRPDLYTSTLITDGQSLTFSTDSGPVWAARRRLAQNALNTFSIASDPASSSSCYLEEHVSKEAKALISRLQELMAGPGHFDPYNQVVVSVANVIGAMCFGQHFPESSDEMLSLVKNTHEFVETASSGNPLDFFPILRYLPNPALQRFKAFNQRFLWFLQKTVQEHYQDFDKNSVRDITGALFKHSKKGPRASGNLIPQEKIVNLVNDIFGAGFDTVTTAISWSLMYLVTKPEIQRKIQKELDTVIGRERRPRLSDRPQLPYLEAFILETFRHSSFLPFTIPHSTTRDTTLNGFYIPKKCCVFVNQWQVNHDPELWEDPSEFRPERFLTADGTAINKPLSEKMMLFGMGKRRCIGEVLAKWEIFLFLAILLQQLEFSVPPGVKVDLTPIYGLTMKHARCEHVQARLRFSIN
Text: as §1, §2, §3, §4

[11] = biological target: T7, CYP3A4 (Homo sapiens, UniProt P08684); assay: CYP inhibition test, pooled human liver microsome, CYP3A4; type: in vitro ADME; conditions: hydroxylation of terfenadine
T7 construct: enzyme: pooled human liver microsome 0.2 mg protein/mL; from tissue; host or cells: pooled human liver microsome
Text: as §1, §2, §3, §4

T1 sequence (P48736 whole entry): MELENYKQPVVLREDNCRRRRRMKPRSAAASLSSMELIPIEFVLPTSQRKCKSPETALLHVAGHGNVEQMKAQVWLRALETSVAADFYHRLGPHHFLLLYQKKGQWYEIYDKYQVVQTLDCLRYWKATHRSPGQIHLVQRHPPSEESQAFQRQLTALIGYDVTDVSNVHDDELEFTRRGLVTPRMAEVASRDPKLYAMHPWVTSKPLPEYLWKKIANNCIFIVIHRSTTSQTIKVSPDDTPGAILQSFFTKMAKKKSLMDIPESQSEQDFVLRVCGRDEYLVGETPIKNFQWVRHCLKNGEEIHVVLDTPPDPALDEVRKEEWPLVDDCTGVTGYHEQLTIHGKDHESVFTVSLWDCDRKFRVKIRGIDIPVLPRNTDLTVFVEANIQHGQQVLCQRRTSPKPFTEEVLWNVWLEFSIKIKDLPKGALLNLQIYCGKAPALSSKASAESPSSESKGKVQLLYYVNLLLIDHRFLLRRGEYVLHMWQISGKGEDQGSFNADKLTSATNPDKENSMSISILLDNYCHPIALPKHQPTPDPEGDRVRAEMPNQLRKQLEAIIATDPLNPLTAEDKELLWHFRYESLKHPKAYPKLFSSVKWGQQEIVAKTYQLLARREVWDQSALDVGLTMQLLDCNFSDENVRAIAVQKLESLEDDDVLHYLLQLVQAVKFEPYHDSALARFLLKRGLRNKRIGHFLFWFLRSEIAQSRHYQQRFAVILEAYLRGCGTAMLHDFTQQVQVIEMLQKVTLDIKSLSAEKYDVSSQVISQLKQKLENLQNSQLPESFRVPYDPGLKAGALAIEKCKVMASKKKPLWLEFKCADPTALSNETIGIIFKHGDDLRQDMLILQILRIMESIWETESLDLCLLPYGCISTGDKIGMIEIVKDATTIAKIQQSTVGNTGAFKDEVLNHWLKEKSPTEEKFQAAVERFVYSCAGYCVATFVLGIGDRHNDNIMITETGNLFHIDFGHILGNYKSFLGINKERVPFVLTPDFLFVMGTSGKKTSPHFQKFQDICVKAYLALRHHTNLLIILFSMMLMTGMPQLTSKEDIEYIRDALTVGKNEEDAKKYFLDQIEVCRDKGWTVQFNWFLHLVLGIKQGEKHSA
T2 sequence (Q12809 whole entry): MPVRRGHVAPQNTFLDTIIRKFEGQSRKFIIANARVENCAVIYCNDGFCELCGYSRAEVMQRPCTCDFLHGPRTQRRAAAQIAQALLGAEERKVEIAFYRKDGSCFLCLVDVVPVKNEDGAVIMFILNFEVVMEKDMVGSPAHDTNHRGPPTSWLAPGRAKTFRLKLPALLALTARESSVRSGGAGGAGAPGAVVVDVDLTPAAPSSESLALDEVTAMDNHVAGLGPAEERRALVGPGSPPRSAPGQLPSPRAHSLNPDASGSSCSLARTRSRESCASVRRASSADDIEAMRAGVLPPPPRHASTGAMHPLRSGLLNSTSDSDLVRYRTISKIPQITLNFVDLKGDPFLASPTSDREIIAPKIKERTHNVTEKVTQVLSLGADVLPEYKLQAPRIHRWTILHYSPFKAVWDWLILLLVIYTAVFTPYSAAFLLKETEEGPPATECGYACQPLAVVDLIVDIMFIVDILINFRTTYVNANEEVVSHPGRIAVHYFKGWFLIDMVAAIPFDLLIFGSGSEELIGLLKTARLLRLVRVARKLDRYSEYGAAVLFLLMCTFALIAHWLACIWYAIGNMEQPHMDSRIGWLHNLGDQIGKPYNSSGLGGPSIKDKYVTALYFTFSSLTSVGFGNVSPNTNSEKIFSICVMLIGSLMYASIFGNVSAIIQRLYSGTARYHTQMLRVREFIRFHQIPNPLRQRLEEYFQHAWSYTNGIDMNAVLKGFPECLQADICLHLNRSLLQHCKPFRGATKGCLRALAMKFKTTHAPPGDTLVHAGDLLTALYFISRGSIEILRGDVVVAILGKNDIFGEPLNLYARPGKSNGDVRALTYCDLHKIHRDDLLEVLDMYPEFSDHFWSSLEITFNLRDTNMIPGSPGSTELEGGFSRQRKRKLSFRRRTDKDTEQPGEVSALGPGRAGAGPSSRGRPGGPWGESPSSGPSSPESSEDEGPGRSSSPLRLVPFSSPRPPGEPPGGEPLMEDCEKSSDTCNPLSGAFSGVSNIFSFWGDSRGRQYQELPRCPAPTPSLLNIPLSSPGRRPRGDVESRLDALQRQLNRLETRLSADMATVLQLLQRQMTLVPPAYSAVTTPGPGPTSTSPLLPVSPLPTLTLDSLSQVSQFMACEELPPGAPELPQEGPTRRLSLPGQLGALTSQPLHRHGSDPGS
T3 sequence (P33261 whole entry): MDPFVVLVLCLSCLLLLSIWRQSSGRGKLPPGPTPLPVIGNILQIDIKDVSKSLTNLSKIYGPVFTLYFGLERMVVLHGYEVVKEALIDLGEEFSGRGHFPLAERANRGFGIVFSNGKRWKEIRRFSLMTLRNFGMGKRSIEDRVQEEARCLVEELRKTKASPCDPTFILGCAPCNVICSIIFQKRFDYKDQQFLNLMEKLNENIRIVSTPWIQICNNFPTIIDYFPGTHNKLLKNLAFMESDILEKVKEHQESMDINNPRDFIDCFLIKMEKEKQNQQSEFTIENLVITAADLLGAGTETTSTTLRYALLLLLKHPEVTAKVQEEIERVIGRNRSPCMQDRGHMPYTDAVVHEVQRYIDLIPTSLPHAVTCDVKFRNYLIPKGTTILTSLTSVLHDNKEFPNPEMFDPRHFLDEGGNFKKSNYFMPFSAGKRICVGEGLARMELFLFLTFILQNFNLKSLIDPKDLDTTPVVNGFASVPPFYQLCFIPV
T5 sequence (P11712 whole entry): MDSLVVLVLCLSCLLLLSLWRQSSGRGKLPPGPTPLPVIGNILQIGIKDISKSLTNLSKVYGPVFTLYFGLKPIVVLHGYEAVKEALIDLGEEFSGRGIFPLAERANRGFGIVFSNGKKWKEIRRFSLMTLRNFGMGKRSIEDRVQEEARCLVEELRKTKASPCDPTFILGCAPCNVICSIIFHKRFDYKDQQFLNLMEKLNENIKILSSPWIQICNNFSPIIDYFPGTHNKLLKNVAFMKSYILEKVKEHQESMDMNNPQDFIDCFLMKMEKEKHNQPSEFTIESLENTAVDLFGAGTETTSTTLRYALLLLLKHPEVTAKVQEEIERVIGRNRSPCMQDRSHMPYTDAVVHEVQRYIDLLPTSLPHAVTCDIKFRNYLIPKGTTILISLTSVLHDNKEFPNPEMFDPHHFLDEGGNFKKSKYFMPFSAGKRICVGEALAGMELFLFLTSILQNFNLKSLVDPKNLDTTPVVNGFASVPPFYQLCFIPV
T7 sequence (P08684 whole entry): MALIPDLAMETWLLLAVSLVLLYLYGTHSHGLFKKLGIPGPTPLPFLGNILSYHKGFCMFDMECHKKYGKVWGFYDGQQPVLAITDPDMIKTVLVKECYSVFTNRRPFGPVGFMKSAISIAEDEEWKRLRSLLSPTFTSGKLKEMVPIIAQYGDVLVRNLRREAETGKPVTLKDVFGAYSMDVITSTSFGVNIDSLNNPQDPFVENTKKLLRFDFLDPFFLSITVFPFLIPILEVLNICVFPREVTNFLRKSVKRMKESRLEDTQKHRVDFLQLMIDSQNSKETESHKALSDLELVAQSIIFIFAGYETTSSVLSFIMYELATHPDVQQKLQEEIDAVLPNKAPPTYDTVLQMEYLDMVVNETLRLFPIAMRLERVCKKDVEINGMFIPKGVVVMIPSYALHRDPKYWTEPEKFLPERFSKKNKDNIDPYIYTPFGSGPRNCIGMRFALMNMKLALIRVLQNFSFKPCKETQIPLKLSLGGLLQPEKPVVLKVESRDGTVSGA
T4 sequence (P10635 whole entry): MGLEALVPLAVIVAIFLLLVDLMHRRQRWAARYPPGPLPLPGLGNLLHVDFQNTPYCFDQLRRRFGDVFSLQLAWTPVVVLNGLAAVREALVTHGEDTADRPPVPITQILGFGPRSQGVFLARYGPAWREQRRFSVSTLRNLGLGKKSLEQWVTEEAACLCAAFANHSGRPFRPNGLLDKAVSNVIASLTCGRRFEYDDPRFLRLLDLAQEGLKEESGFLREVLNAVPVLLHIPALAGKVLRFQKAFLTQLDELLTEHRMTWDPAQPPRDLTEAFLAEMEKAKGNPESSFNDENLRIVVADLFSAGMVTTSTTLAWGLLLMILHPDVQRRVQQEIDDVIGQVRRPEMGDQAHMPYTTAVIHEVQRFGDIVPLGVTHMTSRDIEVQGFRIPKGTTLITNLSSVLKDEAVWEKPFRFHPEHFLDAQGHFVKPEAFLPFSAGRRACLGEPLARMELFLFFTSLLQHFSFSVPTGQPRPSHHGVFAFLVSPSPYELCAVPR

Structure (SMILES) | inhibition at 50 µM [1] [%] | solubility at 16 h [4] [µM] | percentage of the test compound remained after reacting for 30 minutes [6] [%] | mutagenicity (FAT test) [2] | inhibition ratio for the maximum tail current (IKr) [3] [%] | other results
CNC(=O)Nc1cc2n(n1)CCN2c1cc(Br)cc(C(=O)N2CCCC2)c1 [Compound I-181] | ≥ 95 |  |  | (−) |  | 
CNC(=O)Nc1cc2n(n1)CCN2c1ccc(C(N)=O)cc1 [Compound I-160] | ≥ 95 |  |  |  | −0.4 | 
COc1cc(N2CCc3nc(NC(=O)Nc4ccccc4)sc3C2)nc(OC)n1 [Compound I-203] | 95 |  |  | (−) |  | 

The next lines start with results.

inhibition at 50 µM [1] [%] | solubility at 16 h [4] [µM] | percentage of the test compound remained after reacting for 30 minutes [6] [%] | Structure (SMILES) | mutagenicity (FAT test) [2] | inhibition ratio for the maximum tail current (IKr) [3] [%] | other results
 | > 50 | 92.8 | COc1cc(N2CCc3nc(NC(=O)NCCC(=O)O)sc3C2)nc(OC)n1.Cl.Cl [Compound I-262] |  | 1.6 | inhibition at 10 µM ([1]; compound at 10 μM): ≥ 95%; Ki [5]: 0.047 µM
81 | > 50 | 87.9 | CC(=O)Nc1nc2c(s1)CN(c1ccccc1)CC2 [Compound I-230] |  | 9.1 | 
≥ 95 | > 50 |  | CNC(=O)Nc1cc2n(n1)CCN2c1cc(Br)cc(C(=O)N2CCNCC2)c1 [Compound I-185] |  | 8.3 | IC50 [7]: > 20 µM; IC50 [8]: > 20 µM; IC50 [9]: > 20 µM; IC50 [10]: > 20 µM; IC50 [11]: > 20 µM
